Test results as given in patent publication US6447801B1, “Anti-parasitic action of N,N-diethyl-m-toluamide (deet) and formulations that prolong its activity in the skin” (priority 1997, dated 2002).

Experiments:
Amblyoma americanum = test: Tick attachment to rabbit ear, Amblyoma americanum; assay type: in vivo
Experimental: To determine the effect of DEET on tick attachment and feeding we used two species of ticks Amblyoma americanum and Dermacetor variabilis purchased from University of Oklahoma. Ticks were allowed to feed on the ears of male New Zealand white rabbits purchased from Charles River. For feeding, five ticks were introduced into a 60 μm sieve cell well (Fisher Scientific) which was attached to the ear of the rabbit with nail glue. Ticks were observed every 30 minutes for the first eight hours to assess skin attachment and feeding behavior. Tick attachment was defined as the minimum time required for 3 of the 5 ticks to attach to the ear. […] The observation was continued for 72 hours for both species of ticks. Separate rabbits were used for each species and for each treatment. […] All the ticks in this study were active until attachment.
In this series of experiments, the protective effect(s) of different concentrations of DEET and Lipodeet on the attachment of nymphs and adults of two species of ticks, A. americanum and D. variabilis, to the rabbit ear was evaluated. Experiments were set up wherein different concentrations (20% or 40% of DEET or Lipodeet were applied (0.2 ml of the samples to 10 cm^2 surface area), onto the dorsal side of the ear lobes of a rabbit. After allowing the preparation to dry for 30 min., sieve cups (Fisher Scientific, 1″ inner diameter) were then attached to the ear lobes using nail glue. Ten nymphs or five adult ticks were then introduced into the sieve cups every 24 hrs through a small slit made on the sieve membrane. Attachment of ticks to the skin was monitored every 24 hrs. for up to 72 hrs. after introduction of the ticks.
More than 60% of ticks used in our experiments were dead after contact with Lipodeet. Although a well-aerated sieve cup was used (1″ inner diameter), we initially thought that the tick mortality may be due to possible DEET vapor trapped within the sieve cup. Therefore, we designed experiments where one half of the surface area of skin within the sieve cup was treated with 40% Lipodeet and the other half was left untreated. Five adults ticks of A. americanum were then introduced into the sieve cups every 24 hrs. After 72 hrs., the sieve cups were removed.

[1] = Disposition of 14C-DEET and 14C-Lipodeet after skin application (skin, blood, urine, bedding radioactivity)
Experimental: In this series of experiments, 11.472 mg of ^14C-DEET of ^14C-Lipodeet (in 100 μl) was applied to 5 cm^2 area of the mice abdominal skin. At different time points (15 min, 30 min, 60 min, 2 hrs., 4 hrs., 24 hrs., 48 hrs. and 72 hrs.) after application, the whole area of skin where the lipodeet had been applied was collected, underlying tissue removed and the radioactivity measured in a Beckman β-counter. Samples of blood and urine were also collected at these time points from each mouse to measure the radioactivity (n=10 for each time point). […] In this study, we made observations only up to 72 hrs. […] There are two possibilities, (1) substantial quantities of both DEET and Lipodeet are absorbed systemically through the skin within 24 hrs., or (2) both the chemicals are lost in the bedding due to direct contact of the applied area to the bedding materials. The first hypothesis was tested by measuring ^14C levels in the blood and urine in these animals.

cercariae of S. mansoni [2] = test: Wash-off tests with DEET and Lipodeet in schistosomiasis (mice); assay type: in vivo, Schistosoma mansoni
Experimental: After bathing, mice were allowed to dry completely. The abdominal skin of these mice was then exposed to 150 cercariae of S. mansoni labeled with ^35S-methionine. Degree of protection conferred by Lipodeet and DEET after the wash off treatment was evaluated by monitoring the entry of parasites into the skin by compressed organ autoradiography techniques as described earlier (Li et. al. Parasitology International 46:55-65, 1997).

cercariae of S. mansoni [3] = test: Effect of DEET on the morphology of cercariae (transmission electron microscopy); assay type: cell-based, Schistosoma mansoni
Experimental: Effect of DEET on cercarial morphology was evaluated by transmission electron microscopic studies. In these experiments, approximately 300-500 cercariae of S. mansoni suspended in 100 μl of PBS were placed in each well of a 96 well plate coated with varying concentrations of DEET (ranging from 7.5%-40%) or isopropanol (control) as described above. Samples were collected at 5, 10, 20, 30 and 240 minutes after exposure to DEET and processed for transmission electron microscopy as described in Salafsky et al., Exper. Parasitol., 67:116-127 (1988). Briefly, cercariae collected from each tube were transferred to fresh tubes containing PBS plus 10% fetal bovine serum (Sigma Chemical Co.) and concentrated into a pellet by centrifugation at 500 rpm (300 g) for 5 minutes. The pellet was then fixed overnight at 4° C. in a fixative containing 3% gluteraldehyde, and 1% formaldehyde in a 0.1 M phosphate buffer (pH 7.2). After one hour post fixation in 1% osmium tetroxide the pellet were dehydrated through a graded acetone series and embedded in epon resin. Sections were examined in a Hitachi H-500 transmission electron microscope after staining with uranyl acetate and lead citrate.

CCN(CC)C(=O)c1cccc(C)c1 [DEET, N,N-diethyl-m-toluamide]
initial time with no tick attachment (Amblyoma americanum; 10% DEET on rabbit ear, normal rabbits 20 hours): 22.0 h
adult ticks attached (Amblyoma americanum; 20%, adults, by 48 hrs (2/10)): 20%
adult ticks attached (Amblyoma americanum; 20%, adults, by 72 hrs (6/15)): 40%
prevention of adult tick attachment (Amblyoma americanum; 20%, adults, up to 24 hrs): prevented tick attachment
reduction of attachment of A. americanum nymphs to rabbit ear (Amblyoma americanum; 20%, from 24 to 72 hrs, untreated 40% attached): 50%
site of tick attachment, half of the skin in the sieve cup treated (Amblyoma americanum; 40%, adult A. americanum, after 72 hrs): ticks were seen attached to both treated and untreated surfaces
adult ticks attached (Amblyoma americanum; 40%, adults, at 48 hrs (1/10)): 10%
adult ticks attached (Amblyoma americanum; 40%, adults, by 72 hrs (3/15)): 20%
ticks attached to the skin (Amblyoma americanum; 40%, nymphs, by 48 hrs): 20%
prevention of tick attachment (Amblyoma americanum; 40%, nymphs, up to 24 hrs): completely prevented tick attachment to the skin
amount in the superficial layers of the skin ([1]; 11.472 mg on 5 cm^2, by 24 hrs): nearly all of the DEET applied to the skin has been cleared from the superficial layers
lost from the skin ([1]; during 4 to 24 hrs after application): 100%
protective effect after wash-off (cercariae of S. mansoni [2]; 10%, five minutes of exposure to water, irrespective of water temperature): significantly (p<0.01) abolished the protective effects of DEET
protective effect after wash-off (cercariae of S. mansoni [2]; concentration increased to 20%): slightly improved the retention of protective ability of DEET
ultrastructural changes of cercariae (cercariae of S. mansoni [3]; 7.5% DEET, evident as early as five minutes post-exposure): ultrastructural changes of two types were observed
lysis of cercariae (cercariae of S. mansoni [3]; 240 min after exposure to DEET): Frank lysis of cercariae
